Counter-ions that a name gives are not always drawn.
Each molecule was assayed on Acinetobacter baumannii ATCC17961 (assay: Antimicrobial susceptibility testing: 90% growth inhibitory concentration (IC90) determination). Conditions: 90% growth inhibitory concentration against Acinetobacter baumannii ATCC17961, Iso-Sensitest broth, OD 600 nm over 16 h; read-out: ATCC 17961 IC90.
Type: cell-based
Experimental: The in vitro antimicrobial activity of the compounds was determined according to the following procedure: The assay used a 10-points Iso-Sensitest broth medium to measure quantitatively the in vitro activity of the compounds against Acinetobacter baumannii ATCC17961. Stock compounds in DMSO were serially twofold diluted (e.g. range from 10 to 0.0195 μM final concentration) in 384 wells microtiter plates and inoculated with 49 μL the bacterial suspension in Iso-Sensitest medium to have a final cell concentration of ˜5×10^(5) CFU/mL in a final volume/well of 50 μL/well. Microtiter plates were incubated at 35±2° C. Bacterial cell growth was determined with the measurement of optical density at λ=600 nm each min over a time course of 16 h. Growth inhibition was calculated during the logarithmic growth of the bacterial cells with determination of the concentration inhibiting 50% (IC50) and 90% (IC90) of the growth. Table 1 provides the 90% growth inhibitory concentrations (IC90) in micromoles per liter of the compounds of present invention obtained against the strain Acinetobacter baumannii ATCC17961.
`Cn1c(-c2cn(-c3ccc(N)cc3F)nc2C(F)(F)F)cnc1C(=O)Nc1ccc(C(=O)N2CCN(C(=O)OCC[N+](CCCN)(CCCN)CC(=O)O)CC2)c(Cl)c1` [Example 130, 2-[4-[4-[[5-[1-(4-amino-2-fluoro-phenyl)-3-(trifluoromethyl)pyrazol-4-yl]-1-methyl-imidazole-2-carbonyl]amino]-2-chloro-benzoyl]piperazine-1-carbonyl]oxyethyl-bis(3-aminopropyl)-(carboxymethyl)ammonium; formate] showed an IC90 of 0.252 µM.

Same assay, conditions: Acinetobacter baumannii, ATCC17961, 16 h, 90% growth inhibitory concentration against Acinetobacter baumannii ATCC17961, Iso-Sensitest broth, OD 600 nm over 16 h; read-out: ATCC 17961 IC90
`Cn1c(-c2cn(-c3ccc(Nc4ccccn4)cn3)nc2C(F)(F)F)cnc1C(=O)Nc1ccc(C(=O)N2CCN(C(=O)C3CC[N+](CC(=O)O)(CC4CNC4)CC3)CC2)c(Cl)c1` (stereo not drawn) [Example 41, 2-[1-(azetidin-3-ylmethyl)-4-[4-[2-chloro-4-[[1-methyl-5-[1-[5-(2-pyridylamino)-2-pyridyl]-3-(trifluoromethyl)pyrazol-4-yl]imidazole-2-carbonyl]amino]benzoyl]piperazine-1-carbonyl]piperidin-1-ium-1-yl]acetic acid. 1:1 formate] was tested, and the IC90 was 0.44 µM. Molecule `Cn1c(-c2cn(-c3ccc4[nH]c(CCN)cc4n3)nc2C(F)(F)F)cnc1C(=O)Nc1ccc(C(=O)N2CCN(C(=O)[C@H]3CC[N@+](CC(=O)O)(CC4CNC4)CC3)CC2)c(Cl)c1` [Example 129, cis-2-[4-[4-[4-[[5-[1-[2-(2-aminoethyl)-1H-pyrrolo[3,2-b]pyridin-5-yl]-3-(trifluoromethyl)pyrazol-4-yl]-1-methyl-imidazole-2-carbonyl]amino]-2-chloro-benzoyl]piperazine-1-carbonyl]-1-(azetidin-3-ylmethyl)piperidin-1-ium-1-yl]acetic acid; chloride] has an IC90 of 0.355 µM. Work on `C[C@H](N)CNc1ccc(-n2cc(-c3cnc(C(=O)Nc4ccc(C(=O)N5CCN(C(=O)C6CC[N+](CC(=O)O)(CC7CNC7)CC6)CC5)c(Cl)c4)n3C)c(C(F)(F)F)n2)nc1` (stereo partly drawn) [Example 19, 2-[4-[4-[4-[[5-[1-[5-[[(2S)-2-Aminopropyl]amino]-2-pyridyl]-3-(trifluoromethyl)pyrazol-4-yl]-1-methyl-imidazole-2-carbonyl]amino]-2-chloro-benzoyl]piperazine-1-carbonyl]-1-(azetidin-3-ylmethyl)piperidin-1-ium-1-yl]acetic Acid.1:1 formic Acid.1:1 formate] yielded an IC90 of 0.26 µM. `Cn1c(-c2cn(-c3ccc(N4CC[C@H](N)C4)cn3)nc2C(F)(F)F)cnc1C(=O)Nc1ccc(C(=O)N2CCN(C(=O)[C@H]3CC[N@+](CC(=O)O)(CC4CNC4)CC3)CC2)c(Cl)c1` [Example 202, cis-2-[4-[4-[4-[[5-[1-[5-[(3S)-3-aminopyrrolidin-1-yl]-2-pyridyl]-3-(trifluoromethyl)pyrazol-4-yl]-1-methyl-imidazole-2-carbonyl]amino]-2-chloro-benzoyl]piperazine-1-carbonyl]-1-(azetidin-3-ylmethyl)piperidin-1-ium-1-yl]acetic acid;formate] was tested, and the IC90 was 0.231 µM. Molecule `CN(C)c1ccc(-n2cc(-c3cnc(C(=O)Nc4ccc(C(=O)N5CCN(C(=O)C6CC[N+](CC(=O)O)(CC7CNC7)CC6)CC5)c(Cl)c4)n3C)c(C(F)(F)F)n2)nc1` (stereo not drawn) [Example 45, 2-[1-(azetidin-3-ylmethyl)-4-[4-[2-chloro-4-[[5-[1-[5-(dimethylamino)-2-pyridyl]-3-(trifluoromethyl)pyrazol-4-yl]-1-methyl-imidazole-2-carbonyl]amino]benzoyl]piperazine-1-carbonyl]piperidin-1-ium-1-yl]acetic acid. 1:1 formate] has an IC90 of 0.5 µM. With `Cn1c(-c2cn(-c3ccc(NC[C@@H]4C[C@H](F)CN4)cn3)nc2C(F)(F)F)cnc1C(=O)Nc1ccc(C(=O)N2CCN(C(=O)C3CC[N+](CC(=O)O)(CC4CNC4)CC3)CC2)c(Cl)c1` (stereo partly drawn) [Example 57, 2-[1-(azetidin-3-ylmethyl)-4-[4-[2-chloro-4-[[5-[1-[5-[[(2S,4S)-4-fluoropyrrolidin-2-yl]methylamino]-2-pyridyl]-3-(trifluoromethyl)pyrazol-4-yl]-1-methyl-imidazole-2-carbonyl]amino]benzoyl]piperazine-1-carbonyl]piperidin-1-ium-1-yl]acetic acid. 1:1 2,2,2-trifluoroacetic acid. 1:1 2,2,2-trifluoroacetate] the IC90 was 0.61 µM. With `Cn1c(-c2cn(-c3ccc(NCCN)nc3)nc2C(F)(F)F)cnc1C(=O)Nc1ccc(C(=O)N2CCN(C(=O)C3CC[N+](CC(=O)O)(CC4CNC4)CC3)CC2)c(Cl)c1` (stereo not drawn) [Example 8, 2-[4-[4-[4-[[5-[1-[6-(2-aminoethylamino)-3-pyridyl]-3-(trifluoromethyl)pyrazol-4-yl]-1-methyl-imidazole-2-carbonyl]amino]-2-chloro-benzoyl]piperazine-1-carbonyl]-1-(azetidin-3-ylmethyl)piperidin-1-ium-1-yl]acetic acid. 1:1 2,2,2-trifluoroacetate] the IC90 was 1.55 µM. With `Cn1c(-c2cn(-c3cc4cc(CO)[nH]c4cn3)nc2C(F)(F)F)cnc1C(=O)Nc1ccc(C(=O)N2CCN(C(=O)[C@H]3CC[N@+](CC(=O)O)(CC4CNC4)CC3)CC2)c(Cl)c1` [Example 191, cis-2-[1-(azetidin-3-ylmethyl)-4-[4-[2-chloro-4-[[1-methyl-5-[1-(2-methylol-1H-pyrrolo[2,3-c]pyridin-5-yl)-3-(trifluoromethyl)pyrazol-4-yl]imidazole-2-carbonyl]amino]benzoyl]piperazine-1-carbonyl]piperidin-1-ium-1-yl]acetic acid. 1:1 2,2,2-trifluoroacetic acid] the IC90 was 0.315 µM. `Cn1c(-c2cn(-c3cc4[nH]cc(C(=O)NCCO)c4cn3)nc2C(F)(F)F)cnc1C(=O)Nc1ccc(C(=O)N2CCN(C(=O)[C@H]3CC[N@+](CC(=O)O)(CC4CNC4)CC3)CC2)c(Cl)c1` [Example 146, cis-2-[1-(azetidin-3-ylmethyl)-4-[4-[2-chloro-4-[[5-[1-[3-(2-hydroxyethylcarbamoyl)-1H-pyrrolo[3,2-c]pyridin-6-yl]-3-(trifluoromethyl)pyrazol-4-yl]-1-methyl-imidazole-2-carbonyl]amino]benzoyl]piperazine-1-carbonyl]piperidin-1-ium-1-yl]acetic acid. 1:1 2,2,2-trifluoroacetate] showed an IC90 of 0.311 µM. With `Cn1c(-c2cn(-c3ccc(NCCO)cc3F)nc2C(F)(F)F)cnc1C(=O)Nc1ccc(C(=O)N2CCN(C(=O)[C@H]3CC[N@+](CC(=O)O)(CC4CNC4)CC3)CC2)c(Cl)c1` [Example 178, cis-2-[1-(azetidin-3-ylmethyl)-4-[4-[2-chloro-4-[[5-[1-[2-fluoro-4-(2-hydroxyethylamino)phenyl]-3-(trifluoromethyl)pyrazol-4-yl]-1-methyl-imidazole-2-carbonyl]amino]benzoyl]piperazine-1-carbonyl]piperidin-1-ium-1-yl]acetic acid. 1:1 formate] the IC90 was 0.135 µM. Work on `Cn1c(-c2cn(-c3ccc(NCC4(N)CCCC4)cn3)nc2C(F)(F)F)cnc1C(=O)Nc1ccc(C(=O)N2CCN(C(=O)C3CC[N+](CC(=O)O)(CC4CNC4)CC3)CC2)c(Cl)c1` (stereo not drawn) [Example 24, 2-[4-[4-[4-[[5-[1-[5-[(1-aminocyclopentyl)methylamino]-2-pyridyl]-3-(trifluoromethyl)pyrazol-4-yl]-1-methyl-imindazole-2-carbonyl]amino]-2-chloro-benzoyl]piperazine-1-carbonyl]-1-(azetidin-3-ylmethyl)piperidin-1-ium-1-yl]acetic acid. 1:1 2,2,2-trifluoroacetic acid. 1:1 2,2,2-trifluoroacetate] yielded an IC90 of 0.35 µM. `Cn1c(-c2cn(-c3ccc(N)cc3F)nc2C(F)(F)F)cnc1C(=O)Nc1ccc(C(=O)N2CCN(C(=O)[C@H]3CC[N@+](CC(=O)O)(CC4CNC4)CC3)CC2)c(Cl)c1` [Example 16, cis-2-[4-[4-[4-[[5-[1-(4-amino-2-fluoro-phenyl)-3-(trifluoromethyl)pyrazol-4-yl]-1-methyl-imidazole-2-carbonyl]amino]-2-chloro-benzoyl]piperazine-1-carbonyl]-1-(azetidin-3-ylmethyl)piperidin-1-ium-1-yl]acetic acid. 1:1 2,2,2-trifluoroacetate] showed an IC90 of 0.21 µM. Molecule `Cn1c(-c2cn(-c3cc4[nH]cc(C(=O)N5CCC(F)(F)CC5)c4cn3)nc2C(F)(F)F)cnc1C(=O)Nc1ccc(C(=O)N2CCN(C(=O)[C@H]3CC[N@+](CC(=O)O)(CC4CNC4)CC3)CC2)c(Cl)c1` [Example 179, cis-2-[1-(azetidin-3-ylmethyl)-4-[4-[2-chloro-4-[[5-[1-[3-(4,4-difluoropiperidine-1-carbonyl)-1H-pyrrolo[3,2-c]pyridin-6-yl]-3-(trifluoromethyl)pyrazol-4-yl]-1-methyl-imidazole-2-carbonyl]amino]benzoyl]piperazine-1-carbonyl]piperidin-1-ium-1-yl]acetic acid. 1:1 2,2,2-trifluoroacetate] has an IC90 of 0.0958 µM. `Cn1c(-c2cn(-c3cccc(N)n3)nc2C(F)(F)F)cnc1C(=O)Nc1ccc(C(=O)N2CCN(C(=O)[C@H]3CC[N@+](CC(=O)O)(CC4CNC4)CC3)CC2)c(Cl)c1` [Example 192, cis-2-[4-[4-[4-[[5-[1-(6-amino-2-pyridyl)-3-(trifluoromethyl)pyrazol-4-yl]-1-methyl-imidazole-2-carbonyl]amino]-2-chloro-benzoyl]piperazine-1-carbonyl]-1-(azetidin-3-ylmethyl)piperidin-1-ium-1-yl]acetic acid. 1:1 2,2,2-trifluoroacetate] was tested, and the IC90 was 0.265 µM.

Source: patent publication US20250179066A1, “ZWITTERIONIC ANTIBACTERIAL COMPOUNDS” (Hoffmann-La Roche Inc., priority 2022, published 2025)
